Measurements as given in patent US10576147B2, “Muramyl peptide derivative compound, synthesis and uses thereof” (BHARAT BIOTECH INTERNATIONAL LIMITED, priority 2015, dated 2020).

Tests used:
human NOD2 = target: T1, human NOD2 (Homo sapiens, UniProt Q9HC29); assay: NOD2 specific reporter assay (SEAP); type: cell-based
T1 construct: host or cells: HEK 293 (HEK-Blue Human NOD2 reporter cells)
Experimental: Muramyl dipeptide molecules have the ability to bind to NOD2 receptors that are present on […] the immune cells, so as to stimulate immune response. NOD2 (Nucleotide oligomerization domain) receptor is an intracellular pattern recognition receptor (PRRs) recognizes muramyl dipeptide derivatives and stimulates cascade of signalling pathways to induce immune response. […] These cells were prepared by co-transfection of human NOD2 gene and codon-optimized SEAP (secreted embryonic alkaline phosphatase) reporter gene into HEK 293 cells. Upon stimulation of cells with muramyl dipeptide derivative, NFkB gets activated, which intum secrets SEAP and it was measured in cell supernatant. Experimental details of this in-vitro assay are given as example 2.1.
HEK—Blue Human NOD2 reporter cells (5×10^4/well) were plated and cultured overnight in a humidified CO2 incubator at 37° C. […] Supernatant was collected and treated with Quanti blue detection reagent at 37° C. for 15-30 min. Absorbance was read at 630 nm. Dose response curve generated by plotting concentration of adjuvant on X-axis and % response on the Y-axis is as shown in FIG. 1. To generate dose response curve, highest absorbance shown at tested concentration was taken as 100% response and the least absorbance was taken as 0% response. Effective concentration at 50% (EC50) response was determined from the dose response curve.

BALB/c mice [1] = assay: OVA-specific IgG after immunization (indirect ELISA); type: in vivo; conditions: s.c. Days 1 and 15
Experimental: Male BALB/c mice were immunized subcutaneously with OVA 100 μg alone or with OVA 100 μg dissolved in saline containing analogues (7.5, 15 or 30 μg) on Days 1 and 15. Sera were collected 2 weeks after the last immunization. OVA-specific IgG antibodies in the sera were measured by an Indirect ELISA. The values are presented as log 2 titre.

BALB/c mice [2] = assay: HBsAg specific total IgG endpoint titer (ELISA); type: in vivo
Experimental: Female BALB/c mice (6-8 week old, n=6/group) were vaccinated intramuscularly (i.m, at two quadriceps) on Day 0 & Day 28 with vehicle control or Hepatitis B antigen (20 μg/mouse/dose/100 μl, 50 μl per quadricep) with and without MDP-MN (10 μg or 50 or 100 μg/mouse/dose/100 μl) diluted in Phosphate buffered saline. Prior to immunization, Hepatitis B surface antigen was mixed with MDP-MN, by gentle agitation (1:1 ratio), under sterile conditions. Mice were bled and euthanized on Day 42. Blood was collected & serum was isolated to evaluate analyze antigen specific total IgG antibody titer (as in example 3.1.2) and antibody subclasses (isotypes namely IgG1 or IgG2a or IgG3, as in example 3.1.3).
Serial dilutions of individual serum samples ([…] ranging from 1:50 to 819200) were used to determine the endpoint titer of antigen specific total IgG antibody titer by ELISA. Details of assay protocol as described below.
For analysis of antigen specific antibody titer, hepatitis B surface antigen was suspended in 50 mM carbonate bicarbonate buffer, pH 9.6 and coated at a concentration (1 μg/ml, 100 μl/well) in 96 well plates and kept at 4° C. for overnight. Next day, plates were washed with washing buffer (PBST-Phosphate buffered saline, pH 7.4 with 0.05% Tween) and blocked with blocking buffer (PBS with 1% BSA) at RT for 1-2 hr. ELISA plates were washed again with wash buffer (PBS, 0.05% Tween™20) and added serially diluted (in PBS, 0.1% BSA, 0.05% Tween™20, 0.02% sodium azide) sera from hyper immunized mice and incubated at RT for 1 hr. After incubation, wells were again washed and added Goat Anti-mouse IgG HRP conjugate antibody at a dilution of 1:5000 & incubated for 1 hr at RT. Later, wells were washed, and developed with OPD (O-phenylene diamine) as a substrate for 15 min. Reaction was stopped using 2N H2SO4. Absorbance was read at 490 nm. Threshold (Mean+3SD) was established by taking the absorbance of negative control (PBS) group, followed by the reactive index (ratio of absorbance at a particular dilution & threshold), so as to determine end point titer. […]

mouse = assay: rPvRII specific IgG endpoint titer; type: in vivo; conditions: MDP-MN 10 μg/mouse
Wistar rats = assay: Maximum Tolerated Dose test; type: in vivo, rat
Experimental: Wistar rats (n=6, 3M & 3F) were administered intramuscularly (i.m) with MDP-MN containing fixed adjuvant dose of 10, 50 and 100 μg/animal/200 μl in an ascending manner. Animals were observed daily for a period of 14 days for clinical signs & mortality. Body weight was measured daily. Food and water consumed by animals were also monitored daily for any abnormalities & Food and water intake per animal was also calculated. Body temperature was measured for every 4 hours upto 24 hrs, later once in daily upto 7 days and then followed by alternate day upto day 14. Rats were sacrificed on day 14 and organs/tissues such as site of injection, spleen, thymus, brain, lungs, Heart, liver, Kidney were collected and done macroscopic examination. […] It indicates rats are tolerable even at high dose (100 μg/animal). Blood was collected between 24-36 hrs were tested for CRP levels, after the injection. […] Moreover, absence of pro-inflammatory cytokines, CRP levels indicates, MDP-MN is not pyrogenic.

T1 sequence (Q9HC29 whole entry): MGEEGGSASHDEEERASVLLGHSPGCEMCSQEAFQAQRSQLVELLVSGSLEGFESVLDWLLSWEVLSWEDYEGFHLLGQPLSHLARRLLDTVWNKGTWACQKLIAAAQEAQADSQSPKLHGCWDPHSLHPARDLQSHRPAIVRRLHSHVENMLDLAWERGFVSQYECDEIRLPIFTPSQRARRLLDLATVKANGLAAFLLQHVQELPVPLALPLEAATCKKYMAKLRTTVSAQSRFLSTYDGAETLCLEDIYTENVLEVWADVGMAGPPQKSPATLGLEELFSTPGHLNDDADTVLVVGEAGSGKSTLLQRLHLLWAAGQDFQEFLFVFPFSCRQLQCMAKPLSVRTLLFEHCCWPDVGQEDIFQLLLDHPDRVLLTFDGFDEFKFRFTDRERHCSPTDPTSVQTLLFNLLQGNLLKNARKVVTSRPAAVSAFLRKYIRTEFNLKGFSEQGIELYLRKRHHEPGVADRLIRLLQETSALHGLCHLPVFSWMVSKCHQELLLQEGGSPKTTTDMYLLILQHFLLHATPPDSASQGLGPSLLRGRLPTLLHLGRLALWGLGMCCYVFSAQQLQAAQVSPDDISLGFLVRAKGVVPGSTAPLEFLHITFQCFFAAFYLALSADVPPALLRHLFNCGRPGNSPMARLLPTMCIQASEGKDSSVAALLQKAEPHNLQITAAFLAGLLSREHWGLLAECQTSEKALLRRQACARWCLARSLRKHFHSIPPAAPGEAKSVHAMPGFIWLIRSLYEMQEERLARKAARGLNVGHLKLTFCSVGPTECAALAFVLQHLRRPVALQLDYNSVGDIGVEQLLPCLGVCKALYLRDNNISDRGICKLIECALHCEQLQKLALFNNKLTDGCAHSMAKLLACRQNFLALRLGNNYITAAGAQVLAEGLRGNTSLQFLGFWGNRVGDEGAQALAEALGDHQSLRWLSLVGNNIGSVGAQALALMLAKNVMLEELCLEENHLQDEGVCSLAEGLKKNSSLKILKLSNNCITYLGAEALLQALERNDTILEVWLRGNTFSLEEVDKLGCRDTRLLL

Compound: C[C@H](NC(=O)[C@@H](C)O[C@H]1[C@H](O)[C@@H](CO)OC(O)[C@@H]1NC(=O)[C@H](O)CO)C(=O)N[C@H](CCC(=O)O)C(N)=O (stereo partly drawn) [MDP-MN, (4R)-5-amino-4-((2S)-2-((2R)-2-(((3R,4R,5S,6R)-3-((2,3-dihydroxypropanamido))-2,5-dihydroxy-6-(hydroxymethyl)tetrahydro-2H-pyran-4-yl)oxy)propanamido)propanamido)-5-oxopentanoic acid]
- EC50 (human NOD2; HEK-Blue Human NOD2 reporter cells, SEAP absorbance 630 nm, 24-72 hrs, read-out: EC50 (half maximal response) (converted)): 2490 nM
- % response (human NOD2; at 0.01 μg/ml, normalized to least absorbance): 0%
- % response (human NOD2; at 10 μg/ml (plateau), normalized to highest absorbance): 100%
- Log(2) IgG Antibody Titre (BALB/c mice [1]; adjuvant 7.5 μg per mouse with OVA 100 μg): nearly equal antibody titer
- Log(2) IgG Antibody Titre (BALB/c mice [1]; adjuvant 15 μg per mouse with OVA 100 μg): highest serum IgG responses
- Log(2) IgG Antibody Titre (BALB/c mice [1]; adjuvant 30 μg per mouse with OVA 100 μg): highest serum IgG responses
- increase of antibody titer vs HBsAg alone (BALB/c mice [2]; MDP-MN 50 μg/mouse): 4 fold
- increase of antibody titer vs HBsAg alone (BALB/c mice [2]; MDP-MN 100 μg/mouse): 8 fold
- increase of humoral response (TH2) (BALB/c mice [2]; mice vaccinated with Hepatitis B surface antigen in presence of MDP-MN, dose dependent): 4-8 fold
- increase of antibody titer vs rPvRII alone (mouse): 4 fold
- tolerated dose (Wistar rats; Wistar rats, i.m., 14 days observation, highest dose tested): 100 μg/animal
- CRP levels (Wistar rats; blood 24-36 hrs after injection, high dose (100 μg/animal), normal in rats 200-550 μg/ml): normal
- macroscopic examination of organs/tissues (Wistar rats; day 14, site of injection, spleen, thymus, brain, lungs, heart, liver, kidney): No significant lesions or abnormalities
- clinical signs (Wistar rats; even at tested high dose (100 μg/animal), 14 days): no significant clinical signs
- weight gain (Wistar rats; high dose (100 μg/animal), compared to untreated animals): weight gain is less
- mortality (Wistar rats; i.m. 10, 50 and 100 μg/animal, 14 days): no mortality
- tolerated dose (Wistar rats; rat, Maximum Tolerated Dose test): ≤ 100 μg/rat
- pyrogenicity (conclusion from cytokines and CRP levels) (Wistar rats; rat, in vivo): not pyrogenic
- body temperature (Wistar rats; upto 14 days): no temperature raise
